Measured values as given in paper PMC11859423, “Fluorescent Probes to Image the KCa3.1 Channel in Tumor Cells” (Pharmaceutics, 2025).
“Also recorded” adds a separate entry of the source.

Tested on: HEK293 cells
Assay: Negative control staining of HEK293 cells, which do not express KCa3.1 channels
Format: cell-based
Conditions: HEK293 cells do not express KCa3.1 channels
Experimental: After fixation of the cells (Section 2.10.2), 300 µL of the 10 µM staining solution was added to the glass bottom dish. The cells were incubated for 10 min at 4 °C in a dark chamber. After incubation, the cells were washed five times with 1 mL of PBS and used subsequently for fluorescence microscopy.
In a second control experiment, azide precursor 7b without the senicapoc warhead was incubated with fixed A549-3R tumor cells.

For `CCC1=C(C)C2=C(c3ccc(OCCOCCn4cc(COc5ccc(C(C(N)=O)(c6ccccc6)c6ccc(F)cc6)cc5)nn4)cc3)c3c(C)c(CC)c(C)n3[B-](F)(OC)[N+]2=C1C` (stereo not shown) [10b, 2-{4-[(1-{2-[4-(2,6-Diethyl-4-fluoro-4-methoxy-1,3,5,7-tetramethyl-4-bora-3a,4a-diaza-s-indacen-8-yl)phenoxy]ethoxyethyl}-1,2,3-triazol-4-yl)methoxy]phenyl}-2-(4-flluorophenyl)-2-phenylacetamide], the “staining pattern of HEK293 cells (negative control)” value was “a punctate staining pattern was not observed; also recorded: could not be observed”.
